In patent publication US20240287080A1 (IDEAYA Biosciences Inc., priority 2021, published 2024) one finds IC50 data, which are given here for 35 molecules.

Each structure is given as a SMILES string.

Usually IC50 stands for the concentration that gives 50% inhibition.

T1 sequence (O75417 1-899): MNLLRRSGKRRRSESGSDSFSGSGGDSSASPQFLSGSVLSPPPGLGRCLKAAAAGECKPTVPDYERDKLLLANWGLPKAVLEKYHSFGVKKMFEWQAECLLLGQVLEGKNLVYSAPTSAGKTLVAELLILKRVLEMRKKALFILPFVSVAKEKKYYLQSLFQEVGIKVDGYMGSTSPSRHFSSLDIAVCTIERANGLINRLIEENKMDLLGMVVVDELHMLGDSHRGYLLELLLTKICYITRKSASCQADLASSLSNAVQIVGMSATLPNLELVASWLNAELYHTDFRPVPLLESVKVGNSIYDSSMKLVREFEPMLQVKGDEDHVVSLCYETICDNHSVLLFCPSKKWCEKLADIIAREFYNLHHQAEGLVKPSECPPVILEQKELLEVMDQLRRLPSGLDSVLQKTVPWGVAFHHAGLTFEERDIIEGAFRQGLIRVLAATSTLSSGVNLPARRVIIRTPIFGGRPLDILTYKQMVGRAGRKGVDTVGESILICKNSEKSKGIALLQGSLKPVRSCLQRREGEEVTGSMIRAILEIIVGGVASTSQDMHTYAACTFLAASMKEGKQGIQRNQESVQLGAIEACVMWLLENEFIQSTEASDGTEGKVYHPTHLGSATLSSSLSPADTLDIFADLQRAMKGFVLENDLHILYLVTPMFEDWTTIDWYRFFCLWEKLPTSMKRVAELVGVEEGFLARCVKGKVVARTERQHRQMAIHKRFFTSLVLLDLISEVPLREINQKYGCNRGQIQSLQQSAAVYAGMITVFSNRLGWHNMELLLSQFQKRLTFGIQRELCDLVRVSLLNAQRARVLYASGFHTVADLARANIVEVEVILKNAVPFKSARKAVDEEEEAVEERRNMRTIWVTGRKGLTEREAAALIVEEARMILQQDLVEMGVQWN

One assay addresses T1, Pol theta (1-899) (Homo sapiens, UniProt O75417).
T1 construct: Pol theta (1-899) (5 nM) in assay buffer
Put plainly: Pol theta ATPase activity, NADH oxidation-coupled enzymatic assay (ATPase NADH coupling: Standard Screening: hPolQ). The class given is biochemical. The conditions noted are these: Pol theta (1-899) 5 nM, NADH oxidation-coupled ATPase assay; compounds of Table 3. Summed up:
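NADH-coupled ATPase readout: 5 nM Pol theta (1-899) preincubated 15 min with 10-point compound series in Tris pH 7.80, KCl, MgCl2, DTT, BSA, Tween, glycerol, then 100 μM ATP, 300 nM 50-mer poly-dT ssDNA, NADH, PEP, LDH and PK added (stock levels). A340 followed 60 min; slopes fit four-parameter for IC50.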
Take `COc1nnc(NC(=O)c2cnc(C)cc2-c2ccc(S(C)(=O)=O)nc2)s1` [Example 455, N-(5-methoxy-1,3,4-thiadiazol-2-yl)-6′-methyl-6-(methylsulfonyl)-[3,4′-bipyridine]-3′-carboxamide]: the IC50 was in the range of 1 to 10 µM.

The molecule `COc1ccc(-c2cc(C)ncc2C(=O)Nc2nnc(OC)s2)c(F)c1` [Example 445, 4-(2-fluoro-4-methoxyphenyl)-N-(5-methoxy-1,3,4-thiadiazol-2-yl)-6-methylnicotinamide] displayed an IC50 of 1 to 10 µM.

Molecule `COc1ccc(F)c(-c2cc(C)ncc2C(=O)Nc2nnc(OC)s2)c1` [Example 447, 4-(2-fluoro-5-methoxyphenyl)-N-(5-methoxy-1,3,4-thiadiazol-2-yl)-6-methylpyridine-3-carboxamide] returned an IC50 of 0.5 to 1 µM.

Turning to `COc1nnc(NC(=O)c2cnc(C(F)F)cc2-c2cc(Cl)ncc2OC)s1` [Example 281, 2′-chloro-6-(difluoromethyl)-5′-methoxy-N-(5-methoxy-1,3,4-thiadiazol-2-yl)-[4,4′-bipyridine]-3-carboxamide], the IC50 was ≤ 0.2 µM.

In the case of `COc1cnc(Cl)cc1-c1cc(C)ncc1C(=O)Nc1nnc(O[C@@H]2CO[C@H]3OCC[C@H]32)s1` (single isomer, unassigned) [Example 305], the IC50 was ≤ 0.2 µM.

`COc1cnc(C)c(F)c1-c1cc(C)ncc1C(=O)Nc1nnc(O[C@H]2C[C@H]3C[C@@H]2C[C@@H]3O)s1` (single isomer, unassigned) [Example 261]: the IC50 was ≤ 0.2 µM.

For the molecule `COc1cnc(Cl)cc1-c1cc(C)ncc1C(=O)Nc1nnc(OC2CCC23CCOC3)s1` (centres unmarked) [Example 296, N-(5-((6-oxaspiro[3.4]octan-1-yl)oxy)-1,3,4-thiadiazol-2-yl)-2′-chloro-5′-methoxy-6-methyl-[4,4′-bipyridine]-3-carboxamide], the IC50 is ≤ 0.2 µM.

Turning to `COc1nnc(NC(=O)c2cnc(C)cc2-c2ccncc2C)s1` [Example 406, N-(5-methoxy-1,3,4-thiadiazol-2-yl)-3′,6-dimethyl-[4,4′-bipyridine]-3-carboxamide], the IC50 lay in the range of 1 to 10 µM.

Take `COc1cnc(Br)cc1-c1cc(C)ncc1C(=O)Nc1nnc(O[C@H]2CC[C@H](CO)CC2)s1` [Example 315, 2′-bromo-N-(5-(((1r,4r)-4-(hydroxymethyl)cyclohexyl)oxy)-1,3,4-thiadiazol-2-yl)-5′-methoxy-6-methyl-[4,4′-bipyridine]-3-carboxamide]: the IC50 is ≤ 0.2 µM.

As to `COc1nnc(NC(=O)c2cnc(C)cc2-c2cccc(O)c2)s1` [Example 452, 4-(3-hydroxyphenyl)-N-(5-methoxy-1,3,4-thiadiazol-2-yl)-6-methylpyridine-3-carboxamide], the half-maximal inhibitory concentration (IC50) lay within 1 to 10 µM.

Consider `COc1cnc(Cl)cc1-c1cc(C)ncc1C(=O)Nc1nnc(OC2CCN(C3COC3)CC2)s1` [Example 280, 2′-chloro-5′-methoxy-6-methyl-N-(5-((1-(oxetan-3-yl)piperidin-4-yl)oxy)-1,3,4-thiadiazol-2-yl)-[4,4′-bipyridine]-3-carboxamide], for which the IC50 was ≤ 0.2 µM.

In the case of `COc1cnc(C)c(F)c1-c1cc(C)ncc1C(=O)Nc1nnc(O[C@@H]2CCC[C@H](O)C2)s1` (single isomer, unassigned) [Example 255], the IC50 is ≤ 0.2 µM.

In turn, `COc1nnc(NC(=O)c2cc(OC(C)C)ncc2-c2cc(Cl)ncc2OC)s1` [Example 273, 2′-chloro-6-isopropoxy-5′-methoxy-N-(5-methoxy-1,3,4-thiadiazol-2-yl)-[3,4′-bipyridine]-4-carboxamide] returned an IC50 of 0.2 to 0.5 µM.

`COc1nnc(NC(=O)c2cnc(C)cc2-c2cccc(OCC#N)c2)s1` [Example 466, 4-[3-(cyanomethoxy)phenyl]-N-(5-methoxy-1,3,4-thiadiazol-2-yl)-6-methylpyridine-3-carboxamide]: the IC50 fell in the range of 1 to 10 µM.

Molecule `COc1nnc(NC(=O)c2cnc(C)cc2-c2cn[nH]c2)s1` [Example 451, N-(5-methoxy-1,3,4-thiadiazol-2-yl)-6-methyl-4-(1H-pyrazol-4-yl)nicotinamide] came in with an IC50 of 1 to 10 µM.

As to `COc1nnc(NC(=O)c2cnc(C)cc2-c2cccc3sccc23)s1` [Example 423, 4-(1-benzothiophen-4-yl)-N-(5-methoxy-1,3,4-thiadiazol-2-yl)-6-methylpyridine-3-carboxamide], the IC50 fell in the range of 0.2 to 0.5 µM.

As for `COc1nnc(NC(=O)c2cnc(C)cc2-c2cccc3nn(C)cc23)s1` [Example 489, N-(5-methoxy-1,3,4-thiadiazol-2-yl)-6-methyl-4-(2-methyl-2H-indazol-4-yl)pyridine-3-carboxamide], the IC50 fell in the range of 1 to 10 µM.

Staying with this assay, now noted: Table 4; Pol theta (1-899) 5 nM, ATP, dT50 ssDNA.
On to `COc1cnc(Cl)cc1-c1cc(C)ncc1C(=O)Nc1nnc(O[C@H]2CCO[C@H]2C)s1` (single isomer, unassigned) [Example 76, 2′-chloro-5′-methoxy-6-methyl-N-(5-(((2r,3r)-2-methyltetrahydrofuran-3-yl)oxy)-1,3,4-thiadiazol-2-yl)-(4,4′-bipyridine)-3-carboxamide], for which the IC50 was ≤ 0.2 µM.

Consider `CCc1cc(-c2cc(C)ncc2C(=O)Nc2nnc(OC)s2)c(OC)cn1` [Example 44, 2′-ethyl-5′-methoxy-N-(5-methoxy-1,3,4-thiadiazol-2-yl)-6-methyl-(4,4′-bipyridine)-3-carboxamide], for which the IC50 is ≤ 0.2 µM.

Take `COc1nnc(NC(=O)c2cnc(C)cc2-c2cc(Cl)ncc2OC(F)F)s1` [Example 48, 2′-chloro-5′-(difluoromethoxy)-N-(5-methoxy-1,3,4-thiadiazol-2-yl)-6-methyl-(4,4′-bipyridine)-3-carboxamide]: the IC50 was ≤ 0.2 µM.

Turning to `COc1cnc(Cl)cc1-c1cc(C)ncc1C(=O)Nc1nnc(OCC(C)(C)F)s1` [Example 19, 2′-chloro-N-(5-(2-fluoro-2-methylpropoxy)-1,3,4-thiadiazol-2-yl)-5′-methoxy-6-methyl-(4,4′-bipyridine)-3-carboxamide], the IC50 was ≤ 0.2 µM.

Consider `COc1nnc(NC(=O)c2cnc(C)cc2-c2cc([C@H](C)O)ncc2OC)s1` (single isomer, unassigned) [Example 68], for which the IC50 is 1 to 10 µM.

For the molecule `COc1cnc(Cl)cc1-c1cc(C)ncc1C(=O)Nc1nnc(OCC(F)(F)F)s1` [Example 29, 2′-chloro-5′-methoxy-6-methyl-N-(5-(2,2,2-trifluoroethoxy)-1,3,4-thiadiazol-2-yl)-(4,4′-bipyridine)-3-carboxamide], the IC50 is ≤ 0.2 µM.

`COc1nnc(NC(=O)c2cnc(C)cc2-c2cc(C)nnc2OC)s1` [Example 43, N-(5-methoxy-1,3,4-thiadiazol-2-yl)-4-(3-methoxy-6-methylpyridazin-4-yl)-6-methylnicotinamide] registered an IC50 of 0.2 to 0.5 µM.

With `COc1cnc(Cl)cc1-c1cc(C)ncc1C(=O)Nc1nnc(OC2CCCC2)s1` [Example 17, 2′-chloro-N-(5-(cyclopentyloxy)-1,3,4-thiadiazol-2-yl)-5′-methoxy-6-methyl-(4,4′-bipyridine)-3-carboxamide], the IC50 was ≤ 0.2 µM.

Still in this assay, the particulars now being: Table 5; Pol theta (1-899) 5 nM, ATP, dT50 ssDNA.
In the case of `COc1cnc(Cl)cc1-c1cc(C)ncc1C(=O)Nc1nnc(O[C@H]2C[C@@H]3CC[C@H]2O3)s1` (single isomer, unassigned) [Example 217], the IC50 is ≤ 0.2 µM.

`COc1cnc(Cl)cc1-c1cc(C)ncc1C(=O)Nc1nnc(O[C@@H]2COC3(CC3)C2)s1` (single isomer, unassigned) [Example 228]: the IC50 was ≤ 0.2 µM.

On to `COCc1cc(-c2cc(Cl)ncc2OC)c(C(=O)Nc2nnc(OC)s2)cn1` [Example 158, 2′-chloro-5′-methoxy-N-(5-methoxy-1,3,4-thiadiazol-2-yl)-6-(methoxymethyl)-(4,4′-bipyridine)-3-carboxamide], for which the IC50 was ≤ 0.2 µM.

On to `COc1cnc(Cl)cc1-c1cc(C)ncc1C(=O)Nc1nnc(O[C@H]2CC[C@H]2O)s1` (racemic) [Example 112, rac-2′-chloro-N-(5-((1R,2S)-2-hydroxycyclobutoxy)-1,3,4-thiadiazol-2-yl)-5′-methoxy-6-methyl-(4,4′-bipyridine)-3-carboxamide], for which the IC50 is 0.2 to 0.5 µM.

As for `COc1cnc(C)c(F)c1-c1cc(C)ncc1C(=O)Nc1nnc(O[C@@H]2CCOC2)s1` [Example 206], the IC50 was ≤ 0.2 µM.

Take `COc1cnc(Cl)c(F)c1-c1cc(C)ncc1C(=O)Nc1nnc(O[C@@H]2CCO[C@@H]2C)s1` (single isomer, unassigned) [Example 166]: the IC50 is ≤ 0.2 µM.

As to `COc1cnc(Cl)cc1-c1cc(C)ncc1C(=O)Nc1nnc(O[C@H]2CC[C@@]3(CCO3)CC2)s1` (single isomer, unassigned) [Example 186, N-(5-(((4r,7r)-1-oxaspiro(3.5)nonan-7-yl)oxy)-1,3,4-thiadiazol-2-yl)-2′-chloro-5′-methoxy-6-methyl-(4,4′-bipyridine)-3-carboxamide], the IC50 was ≤ 0.2 µM.

With `COc1cnc(Cl)c(F)c1-c1cc(C)ncc1C(=O)Nc1nnc(O[C@H]2C[C@H](OC)C2)s1` (single isomer, unassigned) [Example 151, 2′-chloro-3′-fluoro-5′-methoxy-N-(5-((1r,3r)-3-methoxycyclobutoxy)-1,3,4-thiadiazol-2-yl)-6-methyl-(4,4′-bipyridine)-3-carboxamide], the IC50 was ≤ 0.2 µM.

`COc1cnc(Cl)cc1-c1cc(C)ncc1C(=O)Nc1nnc(OC2CCCC2OC)s1` (centres unmarked) [Example 163, 2′-chloro-5′-methoxy-N-(5-((2-methoxycyclopentyl)oxy)-1,3,4-thiadiazol-2-yl)-6-methyl-(4,4′-bipyridine)-3-carboxamide]: the IC50 is ≤ 0.2 µM.

The same assay, now with this note: Table 5; values given as bound; Pol theta (1-899) 5 nM, ATP, dT50 ssDNA.
In the case of `COc1nnc(NC(=O)c2cnc(C)cc2-c2cccc3scnc23)s1` [Example 98, 4-(benzo(d)thiazol-4-yl)-N-(5-methoxy-1,3,4-thiadiazol-2-yl)-6-methylnicotinamide], the IC50 was > 10 µM.
